# Laboratory results as given in patent US12351596B2 (priority 2019, dated 2025).
# Entries after “also recorded” stand apart in the source; their conditions may differ.
# System: antibodies present in serum samples from melioidosis patients
# Assay type: binding, human
compound,measurement,value
"CO[C@H]1[C@@H](OC(C)=O)[C@H](O[C@@H]2[C@@H](O)[C@H](O[C@@H]3[C@H](O)[C@H](C)O[C@@H](O[C@@H]4[C@@H](O)[C@H](OCCCCCN)O[C@H](CO)[C@H]4O)[C@@H]3OC(C)=O)O[C@H](CO)[C@H]2O)O[C@@H](C)[C@H]1OC(C)=O.Cl [tetrasaccharide 8, (5-Amino-1-pentyl) 2,4-di-O-acetyl-6-deoxy-3-O-methyl-α-L-talopyranosyl-(1→3)-β-D-glucopyranosyl-(1→3)-2-O-acetyl-6-deoxy-α-L-talopyranosyl-(1→3)-β-D-glucopyranoside hydrochloride]",ability to detect antibodies present in serum samples from melioidosis patients,exquisite mimics of the whole Bp and Bm LPS OAgs; also recorded: able to detect antibodies present in serum samples from melioidosis patients
(5-Amino-1-pentyl) 2-O-acetyl-6-deoxy-3-O-methyl-α-L-talopyranosyl-(1→3)-β-D-glucopyranosyl-(1→3)-2-O-acetyl-6-deoxy-α-L-talopyranosyl-(1→3)-δ-D-glucopyranoside hydrochloride [tetrasaccharide 9],ability to detect antibodies present in serum samples from melioidosis patients,exquisite mimics of the whole Bp and Bm LPS OAgs; also recorded: able to detect antibodies present in serum samples from melioidosis patients
same,ability to detect the antibodies compared with other antigens,as effective as tetrasaccharide 8
